Source: article PMC3792051, “Polyenylpyrrole Derivatives Inhibit NLRP3 Inflammasome Activation and Inflammatory Mediator Expression by Reducing Reactive Oxygen Species Production and Mitogen-Activated Protein Kinase Activation” (PLoS ONE, 2013)

Legend:
[1] = tested on: LPS-activated RAW 264.7 macrophages; test: IL-6 and TNF-α secretion by ELISA; assay type: cell-based, murine
Method: The effects of the test samples on IL-1β, TNF-α, and IL-6 production were measured by ELISA according to the manufacturer’s instructions. In brief, 50 µl of biotinylated antibody reagent and 50 µl of supernatant were added to a stripwell plate precoated with anti-mouse IL-1β, TNF-α, or IL-6 antibodies, which was then incubated at room temperature for 2 h. After washing the plate three times with washing buffer, 100 µl of diluted streptavidin-HRP concentrate was added to each well and the plate incubated at room temperature for 30 min. The washing process was repeated, then 100 µl of a premixed tetramethylbenzidine substrate solution was added to each well and the plate incubated at room temperature in the dark for 30 min. After addition of 100 µl of stop solution to each well, the absorbance at 450 nm of each well was measured on a microplate reader.
To investigate the inhibitory effect of compounds 1h, 1i, and 1n on the LPS-induced inflammatory response, NO levels in the supernatants of RAW 264.7 macrophages incubated with DMSO (vehicle) or compound 1h, 1i, or 1n for 30 min before, and during, incubation for 24 h with LPS (1 µg/ml) were measured by the Griess reaction. […] We next investigated their effect on the expression of iNOS, the NO producing enzyme, using Western blots.
Figure 2 Effect of polyenylpyrrole derivatives on the expression of inflammatory mediators in LPS-stimulated RAW 264.7 macrophages. In (A) and (C), the cells (5 × 10^5/ml; 1 ml) were incubated for 30 min with 2.5-40 µM compound 1h, 1i, or 1n or DMSO (vehicle), then LPS (1 µg/ml) was added and incubation continued for 24 h, then NO (A) or IL-6 or TNF-α (C) in the culture medium was assayed by the Griess reaction or ELISA, respectively. In (B), cells (5 × 10^5/ml; 1 ml) were pretreated for 30 min with 2.5-40 µM compound 1h or DMSO, then LPS (1 µg/ml) was added and incubation continued for 24 h, then expression of iNOS and COX-2 was measured by Western blotting. The fold increase is the intensity of the band of interest divided by that of the actin band normalized to the corresponding value for the 0 LPS/0 inhibitor control.

[2] = tested on: LPS-activated RAW 264.7 macrophages; test: MAPK (ERK1/2, JNK1/2, p38) phosphorylation by Western blot; assay type: cell-based, murine; conditions: RAW 264.7, 20 µM 30 min, LPS 1 µg/ml 0-60 min
Method: Cells were washed twice with ice-cold phosphate-buffered saline (PBS) and lysed on ice for 5 min with lysis buffer (20 mM Tris-HCl, pH 7.5, 150 mM NaCl, 1 mM Na 2EDTA, 1 mM EGTA, 1% Triton X-100, 2.5 mM sodium pyrophosphate, 1 mM beta-glycerophosphate, 1 mM Na 3VO4, 1 µg/ml of leupeptin, 1 mM PMSF, protease inhibitor cocktail). The lysate was then centrifuged at 12,000 x g at 4 °C for 10 min and the pellet discarded. […]
Figure 5 Effect of compound 1h on ROS production and MAPK phosphorylation in LPS-activated macrophages. In (A), RAW 264.7 macrophages (5 × 10^5/ml; 1 ml) were incubated for 30 min with compound 1h (20 µM), N-acetyl cysteine (NAC; 10 mM), or DMSO (vehicle), then 2’, 7’-dichlorofluorescein diacetate (2 µM) was added for 30 min, followed by LPS (1 µg/ml) stimulation for the indicated time, then ROS levels were measured by detection of the mean fluorescence intensity (MFI) of the fluorophore carboxyl-DCF and expressing this value relative to that at time zero. In (B), RAW 264.7 macrophages (5 × 10^5/ml; 1 ml) were incubated for 30 min with compound 1h (20 µM) or DMSO, then LPS (1 µg/ml) was added and incubation continued for 0-60 min, then phosphorylation of ERK1/2, JNK1/2, and p38 was analyzed by Western blotting and expressed relative to actin expression and as a fold increase compared to the control group at 0 time. […]

[3] = RAW 264.7, 2.5-40 µM, LPS 1 µg/ml 24 h

**Q.** With `O=c1cc(O)cc(/C=C/C=C/C=C/C=C/c2[nH]ccc2Cl)o1` [compound 1h] as the compound, how does the “IL-6 production by LPS-activated cells” value [1, 3] read?
**A.** Its value is “significantly decreased IL-6 production by LPS-activated cells in a dose-dependent manner”.

**Q.** What about the “TNF-α secretion by LPS-activated cells” value [1, 3] of the same compound?
**A.** The value was “only slightly and non-significantly reduced”.

**Q.** And the “Background levels of IL-6 and TNF-α in non-stimulated macrophages” value ([1]; RAW 264.7, no LPS (data not shown))?
**A.** Its value is “none of the three compounds altered background levels of IL-6 and TNF-α”.

**Q.** What about the “Phosphorylation of ERK1/2, JNK1/2 and p38” value [2] of the same compound?
**A.** The value was “inhibited phosphorylation of all 3 MAPKs”.
